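Exposure lasted 48 hours, with cells grown in 96-well plates and compounds tested at five concentrations. Here, GI50 denotes the concentration required for 50% inhibition of growth. TGI denotes the concentration required for complete inhibition of growth.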
What was measured:
Experiment in all cases: growth of human tumour cells (NCI), 48 h
HCC-2998 colon = test system: HCC-2998 colon
HL-60(TB) leukemia = test system: HL-60(TB) leukemia
HOP-92 NSCLC = test system: HOP-92 NSCLC
NCI-H522 lung = test system: NCI-H522 lung
NCI/ADR-RES ovarian = test system: NCI/ADR-RES ovarian
OVCAR-8 ovarian = test system: OVCAR-8 ovarian
SF-539 CNS = test system: SF-539 CNS
SNB-19 CNS = test system: SNB-19 CNS
UACC-62 melanoma = test system: UACC-62 melanoma
EKVX NSCLC = test system: EKVX NSCLC

SMILES | GI50 (HCC-2998 colon) [µM] | TGI (HCC-2998 colon) [µM] | GI50 (HL-60(TB) leukemia) [µM] | TGI (HL-60(TB) leukemia) [µM] | GI50 (HOP-92 NSCLC) [µM] | TGI (HOP-92 NSCLC) [µM] | GI50 (NCI-H522 lung) [µM] | TGI (NCI-H522 lung) [µM] | GI50 (NCI/ADR-RES ovarian) [µM] | TGI (NCI/ADR-RES ovarian) [µM] | GI50 (OVCAR-8 ovarian) [µM] | TGI (OVCAR-8 ovarian) [µM] | GI50 (SF-539 CNS) [µM] | TGI (SF-539 CNS) [µM] | GI50 (SNB-19 CNS) [µM] | TGI (SNB-19 CNS) [µM] | GI50 (UACC-62 melanoma) [µM] | TGI (UACC-62 melanoma) [µM] | GI50 (EKVX NSCLC) [µM] | TGI (EKVX NSCLC) [µM]
Oc1c(CN2CCN(c3ccccc3F)CC2)cc(Br)c2cccnc12 | 2.87 | 15.1 | 0.392 | 2.34 | 0.896 | 19.8 | 0.662 | 5.05 | 0.224 | 21.9 | 0.607 | 14.5 | 1.02 | 5.6 | 1.14 | > 100 | 0.631 | 4.09 | – | –
COc1ccc2c(c1)C(=O)c1c-2c(NCCN(C)C)nc2ccccc12 | 2.52 | 13.4 | – | – | 0.0658 | 6.54 | 6.92 | 20.9 | 3.66 | 14.3 | 0.496 | 5.53 | 12.4 | 25.2 | 3.28 | 12.7 | 15.8 | 29.4 | 3.06 | 16.4
O=S(=O)(Nc1ccccn1)c1ccc(N=Nc2ccc(O)c3ncccc23)cc1 | 3.73 | 18.4 | 0.77 | 2.61 | 1.21 | 5.34 | 0.418 | 2.14 | 1.02 | 12.8 | 0.715 | – | 0.54 | 4.18 | 0.771 | > 53.3 | 0.582 | 3.03 | – | –
COc1ccc(C(c2cc3c(cc2O)OCO3)N2CCOCC2)cc1OC (stereo not given) | – | – | – | 79.8 | – | 32.8 | – | 15.1 | – | 20 | – | 27.2 | – | 28.3 | – | 30.4 | – | 19.9 | – | 36.7
O=c1ccnc(SCc2ccc(Cl)cc2)[nH]1 | – | 66.2 | – | – | – | > 100 | – | > 100 | – | > 100 | – | > 100 | – | > 100 | – | > 100 | – | > 100 | – | > 100
COC1=C(OC)[C@]2(OC)c3c(O)c(OC)c4c(c3O[C@@]23O[C@@H](c2ccccc2)CC=C3C1=O)[C@@H](O)C[C@H](c1ccccc1)O4 | 0.564 | 1.96 | 0.177 | 0.627 | 0.244 | 0.641 | – | – | 0.688 | 3.39 | 0.181 | 0.35 | 0.934 | 2.5 | 2.11 | 9.69 | 0.326 | 1.3 | 1.69 | 3.08
CC(C)(C)c1cc(-c2nc3c(F)c(F)c(F)c(F)c3[nH]2)cc(C(C)(C)C)c1O | – | – | > 100 | > 100 | > 100 | > 100 | > 100 | > 100 | > 100 | > 100 | > 100 | > 100 | > 100 | > 100 | > 100 | > 100 | > 100 | > 100 | > 100 | > 100
Cc1ccc(C2=NN(c3ccc(S(N)(=O)=O)cc3)C(c3cn(-c4ccccc4)nc3-c3ccccc3)C2)cc1 (stereo not given) | 13.8 | > 100 | 44 | > 100 | 3.33 | 22.2 | 25.1 | > 100 | 11.1 | > 100 | 7.53 | > 100 | > 100 | > 100 | > 100 | > 100 | 32.4 | > 100 | – | –
CC(=O)[O][Bi]([c]1ccccc1)[c]1ccccc1 | – | – | 3.54 | 23.5 | 1.33 | 4.28 | 1.56 | 3.11 | 19.1 | 37.5 | 16.4 | 31 | 11.1 | 24.3 | 12.6 | 26.8 | 11.6 | 24.1 | 19.4 | 34.5
O=C(O)c1ccccc1Nc1ccc2nnc(-c3ccncc3)n2n1 | 23.5 | 52 | 32.5 | > 100 | 16.9 | 35.8 | 10.4 | 22.8 | 18.8 | 77.4 | 8.1 | 41.7 | 14.6 | 55.8 | 14.2 | 40.8 | 5.18 | 19.5 | – | –
Cn1c(=O)c2[nH]c(CCCCc3nc4c([nH]3)c(=O)n(C)c(=S)n4C)nc2n(C)c1=S | – | – | – | – | – | > 100 | – | > 100 | – | > 100 | – | > 100 | – | > 100 | – | > 100 | – | > 100 | – | > 100
Nc1ccccc1C#Cc1ccccc1C#Cc1cnccn1 | – | – | 21.5 | > 100 | – | – | 9.05 | 30.2 | 16.2 | 37.4 | 48 | > 100 | 17.1 | 31.6 | 20.1 | 40.5 | 14.6 | 28 | 14.1 | 27.7

Reference: PubChem BioAssay (NCI)
